According to article PMC2837410, “Structural Basis of Cell Wall Cleavage by a Staphylococcal Autolysin” (PLoS Pathogens, 2010):
Where a chain is given by its changes, count along the chain named.

How the values were obtained:
wt amidase = details: chelating agents likely remove the zinc ion; cited from earlier work
From the text: In order to determine whether amino acids in the vicinity of the zinc ion are required for enzymatic activity, residues H60, H177 and D179 were separately mutated to alanine. All three mutant proteins were expressed and purified to homogeneity. None of them has lytic activity in zymogram gels with heat-inactivated S. aureus cells, whereas the wild type (wt) protein is able to lyse cell walls efficiently (Figure 4A). Similar results were obtained with lysis assays using purified S. aureus PGN (Figure 4B). Our results therefore provide evidence for a critical role of the zinc ion and its surroun ...

AmiE = biological target: T1, AmiE (Staphylococcus epidermidis, UniProt O33635); test: Digestion assay with modified AmiE substrates (Mca substrate derivatives); assay type: biochemical; details: 70 µM substrate, 7.2 µM AmiE, 37°C, 50 mM sodium phosphate buffer pH 7.2, 6 h; stopped with 1% TFA; RP-HPLC C-18, UV 214 nm
T1 construct: A DNA fragment coding for amino acids 303 to 516 of the atlE gene product; GST (N, cleaved yes); made in house; host or cells: Escherichia coli BL21 (DE3)
T1 sequence (O33635 303-516): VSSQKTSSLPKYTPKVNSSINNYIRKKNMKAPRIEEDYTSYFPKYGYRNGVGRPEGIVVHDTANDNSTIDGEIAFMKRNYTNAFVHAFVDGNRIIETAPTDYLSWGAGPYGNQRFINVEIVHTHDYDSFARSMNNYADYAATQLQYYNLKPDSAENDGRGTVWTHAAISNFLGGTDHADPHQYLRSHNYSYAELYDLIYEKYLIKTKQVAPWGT
Protocol: The five substrates, each at a concentration of 70 µM, were processed by 7.2 µM AmiE at 37°C in digestion buffer (50 mM sodium phosphate buffer, pH 7.2). After 1, 3 and 6 h, the reaction was stopped by adding trifluoroacetic acid to a final concentration of 1%. Decrease of the initial substrate and formation of the Mca product were analyzed by analytical RP-HPLC using a binary HPLC system (Shimadzu, Tokyo, Japan) with a UV detector, a Nucleosil C-18 column (5 µm particle size, 150×2 mm) from Dr Maisch GmbH (Tuebingen, Germany) and a two solvent system: (A) 0.055% (v/v) TFA in water and (B) 0.05% TFA in 80% acetonitrile in water. The substrate was well separated from the generated cleavage product Mca, and was quantified at 214 nm.

AmiE wt = biological target: T2, AmiE wt (Staphylococcus epidermidis, UniProt O33635); test: MTP digestion assay (cleavage of PGN-derived ligands), wt enzyme; assay type: biochemical; details: 10 µg protein + 0.1 mg ligand in 10 µl 50 mM Tris/HCl pH 8.0, 150 mM NaCl; 72 h at 37°C; products analysed by HPLC and ESI-MS
T2 construct: A DNA fragment coding for amino acids 303 to 516 of the atlE gene product; GST (N, cleaved yes); made in house; host or cells: Escherichia coli BL21 (DE3)
T2 sequence (O33635 303-516): T1 sequence (O33635 303-516)
Protocol: (§1) To determine the minimal PGN sequence that can still be cleaved by AmiE, we performed cleavage assays with three PGN-derived compounds: MTP, N-acetylmuramyl-L-alanyl-D-iso-glutamine (MDP), and N-acetyl-D-glucosaminyl-(1,4)-N-acetylmuramyl-L-alanyl-D-iso-glutamine (GMDP). MDP and GDMP were purchased from Sigma and Calbiochem, respectively, whereas MTP was synthesized as described. All ligands were incubated with the wt protein for 72 h at 37°C, followed by analysis of products with HPLC and ESI mass spectrometry. […] The m/z profile of the H177A mutant is dominated by peaks at m/z 621 and 649 (Figure 5, right). The latter peak represents the MTP educt plus an unknown additional mass, which probably originates from the synthesis. Both peaks are replaced by peaks at m/z 346 and 374 in the profile for the wt protein (Figure 5, left). The first peak corresponds to the expected mass of the cleaved peptide stem while the second one is the digestion product of the compound with the higher mass. We conclude that cleavage by AmiE requires the presence of a third amino acid in the peptide stem. As the lysine is quite distant from the active site, it is most likely not required for the catalytic reaction itself but likely serves to anchor the ligand in the binding site. Similar cleavage results have previously been obtained for the catalytically active PGRP-L protein, which also requires MTP for cleavage.
For each assay, 10 µg of wt or mutant protein and 0.1 mg of the appropriate ligand were incubated in 10 µl gel filtration buffer (50 mM Tris/HCl pH 8.0, 150 mM NaCl). The reaction was stopped after 72 h by adding 100 µl acetonitrile with 0,05% (v/v) formic acid. The sample was then frozen at -20°C until used for ESI-MS.

AmiE H177A = biological target: T3, AmiE H177A (Staphylococcus epidermidis, UniProt O33635, H479A); test: MTP digestion assay, inactive mutant (negative control); assay type: biochemical; details: 10 µg protein + 0.1 mg ligand in 10 µl 50 mM Tris/HCl pH 8.0, 150 mM NaCl; 72 h; ESI-MS
T3 construct: A DNA fragment coding for amino acids 303 to 516 of the atlE gene product; GST (N, cleaved yes); made in house; host or cells: Escherichia coli
T3 sequence (O33635 303-516 H479A): T1 sequence (O33635 303-516) with H177A
Protocol: as §1, with “Similar cleavage results have previously been obtained for the catalytically active PGRP-L protein, which also requires MTP for cleavage.” left out

Molecule: O=C(O)CN(CCN(CC(=O)O)CC(=O)O)CC(=O)O [EDTA]
- effect of chelating agent on activity of the wt amidase (wt amidase): loss of activity

Molecule: Mca-Ala-D-iGln-Lys-D-Ala-Arg-OH [Lys-substrate]
- amount of substrate cleaved after 6 h (AmiE): almost half

Molecule: Mca-Ala-D-iGln-Ala-D-Ala-Arg-OH [Ala-substrate]
- amount of substrate cleaved after 6 h (AmiE): Approximately 10%

Molecule: N-acetyl-D-glucosaminyl-(1,4)-N-acetylmuramyl-L-alanyl-D-iso-glutamine [GMDP]
- cleavage of ligand by the wt enzyme (AmiE wt): neither MDP nor GMDP are cleaved

Molecule: N-acetylmuramyl-L-alanyl-D-iso-glutamine [MDP]
- cleavage of ligand by the wt enzyme (AmiE wt): neither MDP nor GMDP are cleaved

Molecule: c1cnc2c(c1)ccc1cccnc12 [phenanthroline]
- effect of chelating agent on activity of the wt amidase (wt amidase): loss of activity

Molecule: N-acetylmuramyl-L-alanyl-D-iso-glutamyl-L-lysine [MTP]
- cleavage of ligand by the wt enzyme (AmiE wt): cleaved into two fragments
- cleavage of ligand by the H177A mutant (AmiE H177A): does not cleave
